Reference: US20160220710A1, “COMPOSITIONS AND METHODS FOR DELIVERING PHARMACEUTICAL AGENTS” (THE REGENTS OF THE UNIVERSITY OF MICHIGAN, priority 2015, published 2016)

Tested on: LPS-induced acute lung injury
Experiment: LPS-induced acute lung injury
Assay type: in vivo, mice
Method: Since C57BL/6 mice are relatively resistant towards a single dose of intratracheal (IT) LPS instillation (Matute-Bello G et al., 2008 Am J Physiol Lung Cell Mol Physiol 295(3):L379-99), two IT injections of LPS (16 mg/kg; 50 μl) were administered, one on day 0 and the second on day 3. Briefly, 8 wk CFZ-treated and control mice were anesthetized using intraperitoneal injections of xylazine […]. Under direct visualization of the vocal cords using an otoscope, either LPS or an equivalent volume of PBS in a 1 mL syringe attached to an oral gavage needle (22 G) was instilled into the lungs via the oral route. The mouse was then placed in a temperature-controlled cage (37° C.) for recovery from anesthesia.
The general health status of each PBS/LPS-instilled mice was monitored by measuring body weight and rectal temperature (Microprobe Thermometer, Physitemp Instruments, Clifton, N.J.), and cardiopulmonary function (arterial oxygen saturation, respiratory rate, heart rate and pulse distention) was monitored using MouseOx with a collar clip sensor (Starr Life Sciences Corp, Oakmont, Pa.) as previously described (Lax S et al., (2014) BMJ open Respir Res 1(1):e000014; Nayak S, et al. (2014) PLoS One 9(6):e98336). In brief, one day before IT instillations (D-1) the hair around the neck of each mouse was removed using Nair (Church & Dwight, Princeton, N.J.) to enable data acquisition using the collar clip sensor. The next day (D 0), immediately prior to the first LPS/PBS dose, and every 24 h afterwards until day 6 (D 6), the body weight, temperature and MouseOx readings were recorded. MouseOx data was acquired by very brief anesthesia of the mouse using 5% isoflurane to facilitate the placement of the collar clip sensor. The mouse was then placed in an enclosed chamber with ambient light and allowed to acclimatize for 5 min at which point the animals had recovered normal activities and physiological readings. Arterial oxygen saturation, breath rate, heart rate and pulse distention measurements were then simultaneously recorded for 6 min (15 readings/sec), and any errors caused by motion during recording were excluded, after which the mean value of each parameter was used for further data analysis.
To objectively assess LPS-induced mortality, a multi-parametric scoring system that relied on the daily changes in vital signs associated with inflammatory injury progression and mortality which included arterial oxygen saturation was used (Lax et al., 2014, supra), body weight and temperature (Toth L A (2000) ILAR J 41(2):72-79; Nemzek et al., (2004) Humane endpoints in shock research. Shock 21(1):17-25). First, the percent change from baseline (D 0) in arterial oxygen saturation, body weight, and temperature in each mouse caused by IT instillation of PBS/LPS were measured and calculated daily until day 6 post-instillation. […] These mice were immediately euthanized with ketamine/xylazine and the bronchoalveolar lavage (BAL) and lungs were harvested for cellular and biochemical analysis (see below).
PBS/LPS-instilled CFZ- or control mice were euthanized by exsanguination while deeply anesthetized with an intraperitoneal injection of ketamine/xylazine. The trachea was surgically exposed and cannulated with an 18 G needle and the lungs were lavaged by instilling 1 ml DPBS (Life Technologies) containing 0.5 mM EDTA (Sigma). The retrieved BAL was then centrifuged (10 min at 400×g, 4° C.), and the supernatant was frozen (−80° C.), while the cell pellets were resuspended in 1 ml RPMI 1640 media (Life Technologies). To count total cells, the cells were stained with Trypan blue and counted using a hemocytometer. To distinguish cell types, an aliquot of the cells were dried on glass slides and stained with Diff Stain kit (IMEB Inc, San Marcos, Calif.) according to the manufacturer's instructions. […]

Structure (SMILES): CC(C)/N=c1\cc2n(-c3ccc(Cl)cc3)c3ccccc3nc-2cc1Nc1ccc(Cl)cc1 [CFZ, 3-(p-chloroanilino)-10-(p-chlorophenyl)-2, 10-dihydro-2-isopropyliminophenazine]
- survival rate (8 wk CFZ-treated, two IT LPS 16 mg/kg): 92%
- TNFα and IL-1RA expression (after LPS): reduced TNFα and IL-1RA expression after LPS
- arterial oxygen levels vs control mice (after LPS): significantly higher arterial oxygen levels at day 5 and day 6
- cell count in bronchioalveolar lavage (BAL) (after LPS): significantly less cell count in bronchioalveolar lavage
- number of mice losing more than 15% weight (after LPS): 1
- lung injury vs control mice (after LPS instillation): notably less lung injury
- body temperature drop vs control mice (after second LPS injection (day 4)): more resistant to temperature drop after the second injection
- heart rate, breathing rate and pulse distention vs control mice (after the second LPS injection): less reduction in heart rate, breathing rate and pulse distention
